# Data reported in US20170088589A1, “STATIN RESISTANCE AND EXPORT” (DANMARKS TEKNISKE UNIVERSITET, priority 2014, published 2017).
# Tested on: Saccharomyces cerevisiae WT and ARX3 strain harbouring the putative efflux pump MlcE
# Assay: serial dilution plating of WT and ARX3 on YPD agar plates containing different cytotoxic compounds (FIG. 3)
# Assay type: cell-based
# Conditions: compound in YPD agar, tenfold dilution series, 30° C., 2 days; compactin, lovastatin, simvastatin in active form
# Protocol: Investigation of the potential of MlcE to confer the resistance to statins in yeast. Tenfold dilution series of Saccharomyces cerevisiae WT and ARX3 strain harbouring the putative efflux pump MlcE, starting with an OD600 of 0.02 were prepared from overnight cultures.
# Moreover, to determine if the putative efflux pump MlcE has the ability to export statins across the plasma membrane the inventors of the present application also tested whether MlcE confers resistance to statins in yeast. […] The resulting yeast strain ARX3 was tested for susceptibility to compactin by serial dilution plating of both wild type (WT) and ARX3 strains on YPD agar plates supplemented with the active form of compactin (FIG. 3).
row,Compound,resistance of MlcE-expressing strain ARX3 compared to the wild type strain
1,CC(C)c1c(C(=O)Nc2ccccc2)c(-c2ccccc2)c(-c2ccc(F)cc2)n1CC[C@@H](O)C[C@@H](O)CC(=O)O [atorvastatin],does not show an increased resistance
2,CC[C@H](C)C(=O)O[C@H]1CCC=C2C=C[C@H](C)[C@H](CC[C@@H]3C[C@@H](O)CC(=O)O3)[C@H]21 [compactin],increased resistance
3,CC[C@H](C)C(=O)O[C@H]1C[C@@H](C)C=C2C=C[C@H](C)[C@H](CC[C@@H]3C[C@@H](O)CC(=O)O3)[C@H]21 [lovastatin],increased resistance
4,COc1c(C)c2c(c(O)c1C/C=C(\C)CCC(=O)O)C(=O)OC2 [mycophenolic acid],does not show an increased resistance
5,COc1cc(C=O)ccc1O [vanillin],does not show an increased resistance

# Tested on: Saccharomyces cerevisiae strains (wt, ARX3, AR29 pdr5Δ, pdr5Δ)
# Assay: agar-plate dilution assay (spot assay) with lovastatin, PDR5 complementation (FIG. 4)
# Conditions: lowest tested concentration (0.74 mM) of activated lovastatin, 30° C., 3 days
# Protocol: The constructed strains response to different lovastatin levels present in the growth medium were tested using a agar-plate dilution assay (also known as a spot assay). Overnight cultures of the four Saccharomyces cerevisiae strains (wt, ARX3, AR29 pdr5Δ, pdr5Δ,) were diluted to OD600 of 0.2 and a fivefold dilution series for each strain was made. […] The growth of the individual strain as a function of time was recorded by photography.
row,Compound,growth of pdr5Δ strain
1,CC[C@H](C)C(=O)O[C@H]1C[C@@H](C)C=C2C=C[C@H](C)[C@H](CC[C@@H]3C[C@@H](O)CC(=O)O3)[C@H]21 [lovastatin],lack of growth
